Experimental data: article PMC11111404, “Discovery of potent small-molecule inhibitors of lipoprotein(a) formation” (Nature, 2024)
“And” between values parts separate entries of the source, which are not always exact repeats. Identical values can stand only once. Like-named read-outs stand apart in the source and are kept apart here. Marks after values point to notes of the source that are not given here.

Key:
[1] = Pharmacokinetics in monkey plasma after oral dosing; assay type: in vivo; details: cynomolgus; for Cmax / Tmax: day 14; for AUC(0-t): day 14, read-out: AUC(0–12 h)
Lp(a) = Lp(a) levels in cynomolgus monkeys; assay type: in vivo, cynomolgus monkey (Macaca fascicularis); set-up: key to Mean_pCFB_vs_Veh / Mean_pCFB_vs_Veh (Lp(a)): % change from pre-dose, treated group compared with vehicle; key to Mean_pCFB / Mean_pCFB (Lp(a)): % change in Lp(a) from before dosing; Lp(a): unit not given here; details: for Mean_pCFB / Mean_pCFB_vs_Veh: Lp(a); for Mean_pCFB / Mean_pCFB_vs_Veh / Lp(a) / pCFB (Lp(a) pct change from baseline): female cynomolgus monkeys
Description: Female or male Chinese Macaca fascicularis cynomolgus monkeys (as described in the figure legends) of unspecified ages with body weight ranging from 2.0 kg to 5.0 kg were housed in cages with a standard light cycle (12-h light, 12-h dark) at room temperature (20–26 °C); the relative humidity ranged from 30% to 70%. Monkeys were given fruits, vegetables or dietary enrichment as a form of environmental enrichment, and various cage enrichment devices. Purina Lab diet 5048C was provided BID and individual monkeys were identified by cage card. The monkeys were randomized to treatment groups by body weight and baseline plasma Lp(a) concentration, as determined by a commercially available Randox assay (Randox LP2757), using a BRAT for the study. In an example cynomolgus monkey study in which 39 monkeys were prescreened for baseline Lp(a) levels, the average Lp(a) level was 350 ± 57 µg ml^−1 (range 53–1,667 µg ml^−1). Monkeys were dosed orally with vehicle (purified water) or compounds QD or BID for 14 days, at dose levels and frequencies as previously described for each compound. Plasma samples were collected on days before dosing to establish baseline Lp(a) and after the morning dose during the study. Lp(a) levels were measured by an investigator who was blinded to group allocation using the Randox assay, and were quantified relative to the calibrator series (Randox LP3404). Data were analysed in GraphPad Prism v.9.5.1. The Lp(a) percentage change from before dosing in non-human primates was analysed by repeated measures ANOVA in SAS v.9.4 (SAS). At each time point, the Lp(a) percentage change for each treated group was compared with vehicle by the Bonferroni method.

plasmin activity = biological target: T1, plasmin activity (Rattus norvegicus, UniProt Q01177); assay: Rat plasma plasmin (plasminogen) activity ex vivo after oral dosing; assay type: in vivo; details: rats treated orally at pharmacological doses
T1 construct: Plasma samples were collected via the abdominal aorta; from tissue; host or cells: Citrated plasma of orally dosed male Sprague Dawley rats
Description: Male Sprague Dawley rats (Charles River, average body weight 310 g, aged eight to nine weeks old) were housed in cages with a standard light cycle (12-h light, 12-h dark), at room temperature (22 ± 4 °C), with a relative humidity of 30–70%. Rats were identified by numbers on the cage cards. After arrival, rats were fed on a normal diet (Harlan Teklad diet 2014) and randomized to treatment groups (n = 5 per group) by baseline plasma plasminogen concentration and activity using a BRAT. LSN3441732 and LY3473329 were administered QD orally at three dose levels (3.7, 12.3 and 37 mg kg^−1; 3.2, 10.5 and 31.6 mg kg^−1 per dose, respectively) or vehicle (10 ml kg^−1, 1% HEC, 0.25% Tween-80, Antifoam) for four days. Terminal blood was drawn under general anaesthesia 24 h after the day-4 oral dose. Plasma samples were collected via the abdominal aorta into a premeasured anticoagulant BD Vacutainer used for blood collection (2.7 ml, buffered sodium citrate). The liver was flash frozen in liquid nitrogen. To measure plasminogen activity, 100 µl plasma per well was added to a 96-well plate (Corning) and the following were added to the indicated concentrations: 7.5 mM CaCl2 and 117 mM NaCl. Wells were mixed and warmed to 37 °C. Urokinase (Millipore) was added at 125 U per well and the plate was incubated at 37 °C for 4 min. The plasminogen substrate Chromogenix S-2251 (DiaPharma) was added to a concentration of 3.3 mM. The mixture was added and the plate was sealed and placed in a prewarmed plate reader, shaken, and the absorbance read every 30 s for 2 h. The maximum slope for each curve was determined and the percentage inhibition was calculated relative to untreated controls. Plasminogen protein was measured using ELISA kits for rat (Abcam ab157740) according to the manufacturer’s instructions. Plasminogen activity (percentage) and mass (µg ml^−1) in rat were analysed by ANOVA in JMP 16.1.0. The percentage reduction of plasminogen activity and mass for each treated group was compared with vehicle by Dunnett’s method.

[2] = oral BID, day 1, individual animal
[3] = oral BID, day 3, individual animal
[4] = oral BID, day 5, individual animal
[5] = oral BID, day 9, individual animal
[6] = oral BID, day 14, individual animal
[7] = oral QD, day 1, individual animal
[8] = oral QD, day 3, individual animal
[9] = oral QD, day 5, individual animal
[10] = oral QD, day 9, individual animal
[11] = oral QD, day 14, individual animal

T1 sequence (Q01177 20-812 limits assumed): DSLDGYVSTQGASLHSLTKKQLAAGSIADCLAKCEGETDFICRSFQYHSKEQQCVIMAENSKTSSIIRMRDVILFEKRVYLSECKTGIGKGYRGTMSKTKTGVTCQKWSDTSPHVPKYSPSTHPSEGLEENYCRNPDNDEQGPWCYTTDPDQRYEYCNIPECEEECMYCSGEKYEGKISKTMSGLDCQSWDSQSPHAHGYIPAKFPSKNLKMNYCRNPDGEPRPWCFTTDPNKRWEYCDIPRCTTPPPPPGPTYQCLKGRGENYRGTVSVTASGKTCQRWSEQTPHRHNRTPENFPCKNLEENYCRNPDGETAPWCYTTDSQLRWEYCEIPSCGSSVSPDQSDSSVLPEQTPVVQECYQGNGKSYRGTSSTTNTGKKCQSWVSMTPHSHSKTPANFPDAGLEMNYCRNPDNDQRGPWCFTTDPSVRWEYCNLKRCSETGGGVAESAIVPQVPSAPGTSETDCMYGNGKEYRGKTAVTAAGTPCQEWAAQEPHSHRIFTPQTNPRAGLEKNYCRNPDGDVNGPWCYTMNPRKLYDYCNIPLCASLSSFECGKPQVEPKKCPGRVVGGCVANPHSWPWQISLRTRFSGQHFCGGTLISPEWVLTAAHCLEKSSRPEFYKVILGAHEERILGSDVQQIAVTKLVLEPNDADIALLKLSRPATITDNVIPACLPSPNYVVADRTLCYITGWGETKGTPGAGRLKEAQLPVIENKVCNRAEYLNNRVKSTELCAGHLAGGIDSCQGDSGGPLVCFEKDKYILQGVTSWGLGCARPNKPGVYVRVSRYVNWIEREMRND

## Cl.O=C(O)[C@@H](Cc1ccccc1)[C@H]1CCNC1 [LSN3353871]
[1]; oral 20 mg/kg
  Cmax: 22.3 µM
  Tmax: 1.5 ± 0.5 h
  AUC(0-t): 136 µM·h
[1]; oral 40 mg/kg
  Cmax: 29.6 µM
  Tmax: 1.5 ± 0.5 h
  AUC(0-t): 210 µM·h
Lp(a); BID, day 1
  Mean_pCFB: -17.16
  Mean_pCFB_vs_Veh: 1.08
Lp(a); BID, day 3
  Mean_pCFB: -35.64
  Mean_pCFB_vs_Veh: -13.27
Lp(a); BID, day 5
  Mean_pCFB: -39.65
  Mean_pCFB_vs_Veh: -25.29
Lp(a); BID, day 9
  Mean_pCFB: -24.57
  Mean_pCFB_vs_Veh: -29.9
Lp(a); BID, day 14
  Mean_pCFB: -34.78
  Mean_pCFB_vs_Veh: -34.93
Lp(a); QD, day 1
  Mean_pCFB: -15.58
  Mean_pCFB_vs_Veh: 2.65
Lp(a); QD, day 3
  Mean_pCFB: -24.41
  Mean_pCFB_vs_Veh: -2.03
Lp(a); QD, day 5
  Mean_pCFB: -27.62
  Mean_pCFB_vs_Veh: -13.26
Lp(a); QD, day 9
  Mean_pCFB: -15.91
  Mean_pCFB_vs_Veh: -21.23
Lp(a); QD, day 14
  Mean_pCFB: -9.51
  Mean_pCFB_vs_Veh: -9.65
Lp(a); cynomolgus monkeys, 20 mg kg^−1 BID for two weeks
  decrease in Lp(a) levels: up to 40%
Lp(a); cynomolgus monkeys, 20 mg/kg BID, 14 days dosing
  %Lp(a) max decrease (dose, mg/kg): 40 (20)^b %
Lp(a); BID group, day -1 (before dosing), individual animal
  Lp(a): 62.7685 and 48.163 and 60.7172 and 13.635 and 18.9902 and 51.942 and 61.5505 and 31.6327
Lp(a); BID group, day -14 (before dosing), individual animal
  Lp(a): 63.283 and 50.674 and 55.2892 and 13.5483 and 15.2575 and 51.2555 and 54.086 and 23.9562
Lp(a); QD group, day -1 (before dosing), individual animal
  Lp(a): 64.272 and 49.5175 and 60.6415 and 25.2005
Lp(a); QD group, day -14 (before dosing), individual animal
  Lp(a): 61.406 and 37.9278 and 38.7218 and 35.5823
Lp(a); [2]
  Lp(a): 52.535 and 44.0168 and 46.6457 and 12.9142 and 11.7935 and 42.9437 and 23.7942 and 44.7918
  pCFB (Lp(a) pct change from baseline): -10.9306 and -19.5807 and -4.985 and -31.1282 and -18.9955 and -14.3923 and -20.5861 and -16.6452
Lp(a); [3]
  Lp(a): 45.0043 and 39.4997 and 31.6748 and 8.965 and 6.9825 and 34.2685 and 20.4107 and 36.1685
  pCFB (Lp(a) pct change from baseline): -20.0709 and -45.3913 and -34.0392 and -59.2235 and -35.3595 and -26.5656 and -35.8749 and -28.5937
Lp(a); [4]
  Lp(a): 38.5745 and 31.448 and 28.6503 and 10.7198 and 9.08 and 32.1393 and 18.0332
  pCFB (Lp(a) pct change from baseline): -38.7957 and -36.3639 and -50.6056 and -21.1294 and -46.9735 and -39.3758 and -35.1194 and -48.839
Lp(a); [5]
  Lp(a): 44.675 and 39.068 and 37.0712 and 13.4855 and 14.776 and 41.9348 and 17.9605
  pCFB (Lp(a) pct change from baseline): -29.1163 and -20.9446 and -36.0875 and -0.7811 and -13.7109 and -20.8987 and -35.3809 and -39.6451
Lp(a); [6]
  Lp(a): 55.7647 and 33.5363 and 40.4025 and 9.657 and 7.2775 and 34.1767 and 13.5137
  pCFB (Lp(a) pct change from baseline): -11.5208 and -32.1383 and -30.3443 and -28.9479 and -57.5008 and -35.5326 and -51.38 and -30.8982
Lp(a); [7]
  Lp(a): 48.1358 and 37.1353 and 55.4155 and 18.3242
  pCFB (Lp(a) pct change from baseline): 11.5412 and -39.7058 and -6.086 and -13.177 and -16.5026 and -22.2746 and -23.3982 and -15.0662
Lp(a); [8]
  Lp(a): 39.5063 and 29.6812 and 40.6228 and 20.1472
  pCFB (Lp(a) pct change from baseline): -18.2339 and -33.7073 and 11.9206 and -19.0783 and -28.1629 and -38.7431 and -37.1309 and -32.1149
Lp(a); [9]
  Lp(a): 37.3218 and 25.577 and 40.148 and 26.2523
  pCFB (Lp(a) pct change from baseline): -19.1894 and -13.6191 and -4.001 and -34.7759 and -8.718 and -58.5688 and -40.6072 and -41.5017
Lp(a); [10]
  Lp(a): 56.5955 and 31.4135 and 43.3325 and 24.1392
  pCFB (Lp(a) pct change from baseline): -12.7796 and -20.572 and 2.106 and -9.614 and -0.2146 and -48.0895 and -9.936 and -28.1528
Lp(a); [11]
  Lp(a): 39.3452 and 48.5785 and 37.4098 and 37.2848
  pCFB (Lp(a) pct change from baseline): -24.9526 and -29.9842 and 41.651 and -25.3919 and 24.0547 and -24.319 and -22.6937 and -14.4384
Plasmin activity
  plasma plasmin activity measured ex vivo: no inhibitory action
